Experimental data: US7632812B2, “Methods to stimulate insulin production by pancreatic β-cells” (Massachusetts General Hospital, priority 1999, dated 2009)

Experiments:
INS-1 cells [1] = experiment: Insulin secretion by INS-1 cells into medium over 24 h (Rat Insulin RIA); assay type: cell-based; details: INS-1 cells transfected with pEV control and insulin promoter-reporter construct; 24 h exposure; increasing amounts; FIG. 15
Experimental: (§1) This potential role was examined with the rat INS-1 cell line, which intrinsically expresses Ihh and Dhh proteins (FIGS. 13 and 14). […] Insulin levels were measured with a Rat Insulin RIA Kit (LINCO Research, Inc., St. Louis, Mo.) using the protocol outlined by the manufacturer. […] After 24 hours of incubation, 500 μL aliquots of culture medium were removed and serially diluted for the assay. Culture medium that was not exposed to cells was tested as a negative control for the assay. In some experiments, transfected cells were assessed for insulin secretion rates. In these experiments, after incubation with lipofectamine and DNA, the transfected cells received fresh culture medium and 24-hour insulin secretion rates were assessed. Given that the cells intrinsically express hedgehog, the cells were also treated with cyclopamine in the absence of any transfection. […] Cells were then rinsed in phosphate buffered saline and lysed in 0.1N HCl in 100% ethanol at 4° C. The lysate was incubated overnight at−70° C. The thawed lysate was vortexed and subjected to brief centrifugation at 14,000 rpm. The resulting supernatant was dried under vacuum, resuspended in […] Assay buffer, and serially diluted for insulin measurements with the Rat Insulin RIA Kit.

INS-1 cells [2] = experiment: Cellular insulin content of INS-1 cells (Rat Insulin RIA of lysate); assay type: cell-based; details: untransfected INS-1 cells, 20 μM, 24 hours; FIG. 16
Experimental: as §1

[3] = tested on: insulin mRNA in INS-1 cells; experiment: Northern blot of insulin mRNA levels in INS-1 cells; assay type: cell-based, rat; details: 20 μM, Northern RNA blots, FIG. 17
Experimental: For isolation of total RNA, cells were washed in phosphate buffered saline and lysed with Tri-Reagent (SIGMA, St-Louis, Mo.). Total cellular RNA was prepared according to the manufacturer's protocol. For each sample, 4 μg total RNA was separated by electrophoresis on a denaturing gel consisting of 1× MOPS, 1.2% agarose and 1% formaldehyde. Samples were transferred using standard methods (Ausubel et al., Short Protocols in Molecular Biology, Third Edition, John Wiley and Sons, Inc., 1995.) to nylon membranes (Hybond-N+, Amersham Pharmacia Biotech, Inc., Piscataway, N.J.) and crosslinked with ultraviolet light (UV Stratalinker 1800, Stratagene, La Jolla, Calif.). The membranes were prehybridized in Rapid-Hyb Buffer (Amersham Pharmacia Biotech, Inc.) prior to hybridization for 4 hours at 65° C. with radiolabeled probes. Insulin transcripts were probed with a 231 nucleotide fragment (spanning nucleotides 349 to 580 of the rat insulin I gene, Genbank acc. no. V01242) of rat insulin I cDNA. […] For quantitation, autoradiograms were scanned with a Computing Densitometer (Molecular Dynamics, Sunnyvale, Calif.) and individual band intensities were determined with ImageQuant software (Molecular Dynamics, Sunnyvale, Calif.). […]

rat insulin I promoter = experiment: Rat insulin I promoter luciferase reporter (-410 INS-luc) in transfected INS-1 cells; assay type: cell-based; details: absence of the Shh expression construct, dose-dependent, FIG. 19
Experimental: To determine whether hedgehog regulation of insulin production occurs at the transcriptional level, INS-1 cells were transiently transfected with 5-6 μg total DNA and 10 μL Lipofectamine according to the manufacturer's instructions (GIBCO BRL Life Technologies, Inc., Gaithersburg, Md.) with increasing concentrations of Shh expression vector pSHH in the presence of a rat insulin I promoter-reporter construct −410 INS-luc. […] The plasmid −410 INS-LUC consists of a fragment of the rat insulin I gene promoter that spans nucleotides −410 to +49 inserted into the pXP2 vector that includes firefly luciferase reporter sequences (Lu, M., et al, 1997, J. Biol. Chem.: 272:28349). […] For luciferase assays, cells were harvested 24 hours after transfection with 1× Reporter Lysis Buffer (Promega, Madison, Wis.). Luciferase assays were conducted with the Luciferase Assay System as outlined by the manufacturer (Promega, Madison, Wis.). Luciferase activities were normalized for extract protein concentrations as determined by the Bio-Rad Protein Assay (Bio-Rad Laboratories, Hercules, Calif.), a modified Bradford assay (Bradford, M., 1976, Anal. Biochem., 72:248).

In the case of `CC1=C2C[C@H]3[C@@H](CC=C4C[C@@H](O)CC[C@@]43C)[C@@H]2CC[C@]12O[C@@H]1C[C@H](C)CN[C@H]1[C@H]2C` [cyclopamine], the “effect on insulin secretion” value (INS-1 cells [1]) is reported as “increasingly inhibited insulin secretion”, the “reduction in cellular insulin content” value (INS-1 cells [2]) is reported as 40% and the “levels of insulin mRNA” value [3] is reported as “decrease in the levels of insulin mRNA”. For the same compound, the “inhibition of basal insulin promoter activity” value (rat insulin I promoter) was “up to 90%”.
